From patent US20240368120A1 (Terns Pharmaceuticals, Inc., priority 2023, published 2024)

Target: T1, human GLP-1R receptor (Homo sapiens, UniProt P43220)
T1 construct: expressed in transfected cells
Assay: GLP-1R low expression cell assay (cAMP TR-FRET, CHO-K1_hGLP-1Rlow_clone10 cells)
Type: cell-based
Details: for EC50: cAMP TR-FRET, 30 min at 25° C.; for Emax: maximum activation relative to control GLP-1 peptide agonist
Procedure, shortened: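 CHO-K1 cells stably expressing low surface human GLP-1R (clone10), 1,000 cells/well, exposed to 10-point 3-fold compound dilutions for 30 min at 25 °C. cAMP measured by TR-FRET (Eu-cAMP tracer/ULight-anti-cAMP, 15 min). EC50 from Hill fit of duplicate percent activation relative to a parallel GLP-1 control agonist.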

T1 sequence (P43220 24-463): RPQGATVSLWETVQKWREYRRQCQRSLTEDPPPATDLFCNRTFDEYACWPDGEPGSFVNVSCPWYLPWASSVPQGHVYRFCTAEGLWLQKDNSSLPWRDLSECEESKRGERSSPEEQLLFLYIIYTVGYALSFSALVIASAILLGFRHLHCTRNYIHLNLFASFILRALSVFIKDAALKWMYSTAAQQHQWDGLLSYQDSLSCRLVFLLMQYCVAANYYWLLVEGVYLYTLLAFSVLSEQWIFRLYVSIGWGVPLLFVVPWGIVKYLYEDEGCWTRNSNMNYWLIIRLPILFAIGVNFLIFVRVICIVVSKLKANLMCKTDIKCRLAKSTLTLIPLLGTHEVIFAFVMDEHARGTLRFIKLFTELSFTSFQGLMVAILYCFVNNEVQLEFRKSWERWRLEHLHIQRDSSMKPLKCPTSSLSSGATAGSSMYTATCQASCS

EC50 [nM] | Emax [%] | SMILES
< 10 | > 85 | COc1cc(C#N)ccc1COc1cccc(C2CCN(Cc3nc4c(OC)cc(C(=O)O)cc4n3C)CC2)n1 [Compound 344, 2-((4-(6-((4-Cyano-2-methoxybenzyl)oxy)pyridin-2-yl)piperidin-1-yl)methyl)-4-methoxy-1-methyl-1H-benzo[d]imidazole-6-carboxylic acid]
10 to 100 | > 85 | [2H]C([2H])(C)Oc1cc(C(=O)O)cc2c1nc(CN1CCC(c3cccc(OCc4ccc(Cl)cc4F)c3)CC1)n2C [Compound 284, 2-((4-(3-((4-Chloro-2-fluorobenzyl)oxy)phenyl)piperidin-1-yl)methyl)-4-(ethoxy-1,1-d2)-1-methyl-1H-benzo[d]imidazole-6-carboxylic acid]
100 to 1000 | > 85 | COc1cc(C(=O)O)cc2c1nc(CN1CCC(c3cccc4c3O[C@@](C)(c3ccc(Cl)cn3)O4)CC1)n2C(C)C [Compound 86, (S)-2-((4-(2-(5-Chloropyridin-2-yl)-2-methylbenzo[d][1,3]dioxol-4-yl)piperidin-1-yl)methyl)-1-isopropyl-4-methoxy-1H-benzo[d]imidazole-6-carboxylic acid]
> 1000 | > 85 | COc1cc(C(=O)O)cc2c1nc([C@@H](C)N1CCC(c3cccc(OCc4ccc(C#N)cc4F)n3)CC1)n2C[C@@H]1CCO1 [Compound 94, 2-((R)-1-(4-(6-((4-Cyano-2-fluorobenzyl)oxy)pyridin-2-yl)piperidin-1-yl)ethyl)-4-methoxy-1-(((S)-oxetan-2-yl)methyl)-1H-benzo[d]imidazole-6-carboxylic acid]
< 10 | > 85 | COc1cc(C(=O)O)cc2c1nc([C@H](C)N1CCC(c3cccc(OCc4ccc(C#N)cc4F)n3)CC1)n2C[C@@H]1CCO1 [Compound 95, 2-((S)-1-(4-(6-((4-Cyano-2-fluorobenzyl)oxy)pyridin-2-yl)piperidin-1-yl)ethyl)-4-methoxy-1-(((S)-oxetan-2-yl)methyl)-1H-benzo[d]imidazole-6-carboxylic acid]
< 10 |  | COc1cc(C(=O)O)cc2c1nc(CN1CCC(c3cccc4c3O[C@@H](c3ccc(C#N)cc3F)CO4)CC1)n2Cc1cncs1 [Compound 63, (S)-2-((4-(3-(4-cyano-2-fluorophenyl)-2,3-dihydrobenzo[b][1,4]dioxin-5-yl)piperidin-1-yl)methyl)-4-methoxy-1-(thiazol-5-ylmethyl)-1H-benzo[d]imidazole-6-carboxylic acid]
< 10 | > 85 | COc1cc(C(=O)O)c(F)c2c1nc(CN1CCC(c3cccc(OCc4ccc(C#N)cc4F)n3)CC1)n2C[C@@H]1CCO1 [Compound 117, (S)-2-((4-(6-((4-Cyano-2-fluorobenzyl)oxy)pyridin-2-yl)piperidin-1-yl)methyl)-7-fluoro-4-methoxy-1-(oxetan-2-ylmethyl)-1H-benzo[d]imidazole-6-carboxylic acid]
< 10 | > 85 | CCOc1cc(-c2nnn[nH]2)cc2c1nc(CN1CCC(c3cccc(OCc4ccc(C#N)cc4F)n3)CC1)n2C [Compound 273, 4-(((6-(1-((4-ethoxy-1-methyl-6-(1H-tetrazol-5-yl)-1H-benzo[d]imidazol-2-yl)methyl)piperidin-4-yl)pyridin-2-yl)oxy)methyl)-3-fluorobenzonitrile]
100 to 1000 | > 85 | Cn1c(CN2CCC(c3cccc4c3O[C@@](C)(c3ccc(Cl)cn3)O4)CC2)nc2c(C(C)(F)F)cc(C(=O)O)cc21 [Compound 87, (S)-2-((4-(2-(5-Chloropyridin-2-yl)-2-methylbenzo[d][1,3]dioxol-4-yl)piperidin-1-yl)methyl)-4-(1,1-difluoroethyl)-1-methyl-1H-benzo[d]imidazole-6-carboxylic acid]
< 10 | > 85 | COc1cc(C(=O)O)cc2c1nc(Cc1ccc(-c3cccc(OCc4ccc(Cl)cc4F)n3)cc1F)n2C [Compound 292, 2-(4-(6-((4-Chloro-2-fluorobenzyl)oxy)pyridin-2-yl)-2-fluorobenzyl)-4-methoxy-1-methyl-1H-benzo[d]imidazole-6-carboxylic acid]
> 1000 | 50 to 85 | COc1cc(C(=O)O)cc2nc(CN3CCC(c4cccc(OCc5ccc(Cl)cc5F)n4)CC3)n(CF)c12 [Compound 192, 2-((4-(6-((4-Chloro-2-fluorobenzyl)oxy)pyridin-2-yl)piperidin-1-yl)methyl)-1-(fluoromethyl)-7-methoxy-1H-benzo[d]imidazole-5-carboxylic acid]
< 10 | > 85 | [2H]C([2H])(C)Oc1cc(C(=O)O)cc2c1nc(CN1CCC(c3cccc(OC([2H])([2H])c4ccc(Cl)cc4F)n3)CC1)n2C [Compound 286, 2-((4-(6-((4-Chloro-2-fluorophenyl)methoxy-d2)pyridin-2-yl)piperidin-1-yl)methyl)-4-(ethoxy-1,1-d2)-1-methyl-1H-benzo[d]imidazole-6-carboxylic acid]
10 to 100 | > 85 | COc1cc(C#N)ncc1COc1cccc(C2CCN(Cc3nc4c(OC(F)F)cc(C(=O)O)cc4n3C)CC2)n1 [Compound 354]
10 to 100 | > 85 | Cn1c(CN2CCC(c3cccc4c3O[C@H](c3ccc(C#N)cc3F)CO4)CC2)nc2c(OCCF)cc(C(=O)O)cc21 [Compound 315, (R)-2-((4-(3-(4-Cyano-2-fluorophenyl)-2,3-dihydrobenzo[b][1,4]dioxin-5-yl)piperidin-1-yl)methyl)-4-(2-fluoroethoxy)-1-methyl-1H-benzo[d]imidazole-6-carboxylic acid]
> 1000 | 25 to 50 | Cn1c(CN2CCC(c3cccc4c3O[C@H](c3ccc(Cl)cc3F)CC4)CC2)nc2c(OC(F)F)cc(C(=O)O)cc21 [Compound 368, (S)-2-((4-(2-(4-Chloro-2-fluorophenyl)chroman-8-yl)piperidin-1-yl)methyl)-4-(difluoromethoxy)-1-methyl-1H-benzo[d]imidazole-6-carboxylic acid]
< 10 | > 85 | Cn1c(CN2CCC(c3cccc(OCc4ccc(C#N)cc4F)n3)CC2)nc2c(OCCO)cc(C(=O)O)cc21 [Compound 291, 2-((4-(6-((4-Cyano-2-fluorobenzyl)oxy)pyridin-2-yl)piperidin-1-yl)methyl)-4-(2-hydroxyethoxy)-1-methyl-1H-benzo[d]imidazole-6-carboxylic acid]
10 to 100 |  | Cn1c(CN2CCC(c3cccc(OCc4ccc(F)cc4F)n3)CC2)nc2c(OC(F)F)cc(C(=O)O)cc21 [Compound 250, 2-((4-(6-((2,4-Difluorobenzyl)oxy)pyridin-2-yl)piperidin-1-yl)methyl)-4-(difluoromethoxy)-1-methyl-1H-benzo[d]imidazole-6-carboxylic acid]
> 1000 | 50 to 85 | CNC(=O)c1cc(OC)c2nc(CN3CCC(c4cccc(OCc5ccc(Cl)cc5F)n4)CC3)n(C)c2c1 [Compound 280, 2-((4-(6-((4-chloro-2-fluorobenzyl)oxy)pyridin-2-yl)piperidin-1-yl)methyl)-4-methoxy-N, 1-dimethyl-1H-benzo[d]imidazole-6-carboxamide]
> 1000 | > 85 | O=C(O)c1ccc2nc(CN3CCC(c4cccc(OCc5ccc(Cl)cc5F)n4)CC3)[nH]c2c1O [Compound 204, 2-((4-(6-((4-Chloro-2-fluorobenzyl)oxy)pyridin-2-yl)piperidin-1-yl)methyl)-7-hydroxy-1H-benzo[d]imidazole-6-carboxylic acid]
10 to 100 | > 85 | COc1cc(C(=O)O)cc2c1nc([C@H](C)N1CCC(c3cccc(OCc4ccc(C#N)cc4F)n3)CC1)n2C [Compound 102, (S)-2-(1-(4-(6-((4-Cyano-2-fluorobenzyl)oxy)pyridin-2-yl)piperidin-1-yl)ethyl)-4-methoxy-1-methyl-1H-benzo[d]imidazole-6-carboxylic acid]
100 to 1000 | > 85 | Cn1c(CN2CCC(c3cccc(OCc4ccc(Cl)cc4F)c3)CC2)nc2c(OC(F)F)cc(C(=O)O)cc21 [Compound 148, 2-((4-(3-((4-Chloro-2-fluorobenzyl)oxy)phenyl)piperidin-1-yl)methyl)-4-(difluoromethoxy)-1-methyl-1H-benzo[d]imidazole-6-carboxylic acid]
> 1000 | > 85 | Cn1c(CN2CCC(c3cccc(OCc4ccc(Cl)cc4F)n3)CC2)nc2c(OC(F)F)c(C(=O)O)ccc21 [Compound 220, 2-((4-(6-((4-Chloro-2-fluorobenzyl)oxy)pyridin-2-yl)piperidin-1-yl)methyl)-4-(difluoromethoxy)-1-methyl-1H-benzo[d]imidazole-5-carboxylic acid]
> 1000 | > 85 | Cn1c(N[C@H]2CC[C@H](c3cccc(OCc4ccc(Cl)cc4F)n3)CC2)nc2c(OC(F)F)cc(C(=O)O)cc21 [Compound 371, 2-(((1r,4r)-4-(6-((4-Chloro-2-fluorobenzyl)oxy)pyridin-2-yl)cyclohexyl)amino)-4-(difluoromethoxy)-1-methyl-1H-benzo[d]imidazole-6-carboxylic acid]
< 10 | > 85 | COc1cc(C(=O)O)cc2c1nc(Cc1ccc(-c3cccc(OCc4ccc(C#N)cc4F)n3)cc1F)n2C [Compound 342, 2-(4-(6-((4-cyano-2-fluorobenzyl)oxy)pyridin-2-yl)-2-fluorobenzyl)-4-methoxy-1-methyl-1H-benzo[d]imidazole-6-carboxylic acid]

SMILES | EC50 [nM] | Emax [%]
CCOc1cc(C(=O)NS(C)(=O)=O)cc2c1nc(CN1CCC(c3cccc(OCc4ccc(C#N)cc4F)n3)CC1)n2C [Compound 261, 2-((4-(6-((4-Cyano-2-fluorobenzyl)oxy)pyridin-2-yl)piperidin-1-yl)methyl)-4-ethoxy-1-methyl-N-(methylsulfonyl)-1H-benzo[d]imidazole-6-carboxamide] | 10 to 100 | > 85
